Experimental data from article PMC9380258, “Primary and secondary functions of HLA-E are determined by stability and conformation of the peptide-bound complexes” (Cell Reports, 2022).
Read-outs that look alike come from different tables or passages of the source.

Experiments:
HLA-E [1] = test system: HLA-E; set-up: method as in Walters et al. 2020; conditions: sandwich ELISA (3D12 anti-HLA-E capture, anti-β2M detection) after peptide exchange; normalised signal as percentage of positive control VL9 signal; previously published; ref Walters et al. 2020; cited from earlier work
HLA-E [2] = format: binding, human; conditions: for Tm (°C) 12M, HLA-E-β2M-peptide complex thermal stability: pH 8
HLA-E*01:03 = HLA-E*01:03 (Homo sapiens, UniProt P13747); experiment: SEC-SAXS of peptide-refolded HLA-E*01:03 complexes

| Sequence | ELISA Rank (%VL9 binding) (HLA-E [1]) | Tm (°C) 12M, HLA-E-β2M-peptide complex thermal stability (HLA-E [2]) | further results |
| --- | --- | --- | --- |
| VMAPRTVLL [VL9, reference compound] | 100% | 49.4 °C | – |
| EIEVDDDLIQK [EK11] | minimal binding | – | – |
| RLPAKAPLL [Mtb44] | 97% | 50.6 °C | – |
| EKQRESREK [EK9] | < 10% | – | – |
| QAISPRTLN [Neg Ctrl pep, reference compound] | 0.3% | 31.8 °C | – |
| RMAATAQVL [Mtb14] | 48% | 37.8 °C | Molecular envelope Vol %change (HLA-E*01:03): −32% |
| RMYSPTSIL [RL9HIV] | 43% | 38.2 °C | Molecular envelope Vol %change (HLA-E*01:03; % change in model volume following 120 μM excess peptide addition): −42% |
| RMYNPTNIL [RL9SIV] | 22% | 35.2 °C | Molecular envelope Vol %change (HLA-E*01:03): −34% |
| VMAPRTQLL [VL9 P7Q] | – | – | drop in thermal stability (HLA-E [2]): 6.6 °C |
| SQAPLPCVL [BZLF1] | 41% | 37.7 °C | Dmax (Å), maximum dimension (HLA-E*01:03): 108 Å; Molecular envelope Vol (Å3) (HLA-E*01:03): 107,950 Å3 |
